Molecular target: T1, ITK (Homo sapiens, UniProt Q08881)
T1 sequence (Q08881 1-620): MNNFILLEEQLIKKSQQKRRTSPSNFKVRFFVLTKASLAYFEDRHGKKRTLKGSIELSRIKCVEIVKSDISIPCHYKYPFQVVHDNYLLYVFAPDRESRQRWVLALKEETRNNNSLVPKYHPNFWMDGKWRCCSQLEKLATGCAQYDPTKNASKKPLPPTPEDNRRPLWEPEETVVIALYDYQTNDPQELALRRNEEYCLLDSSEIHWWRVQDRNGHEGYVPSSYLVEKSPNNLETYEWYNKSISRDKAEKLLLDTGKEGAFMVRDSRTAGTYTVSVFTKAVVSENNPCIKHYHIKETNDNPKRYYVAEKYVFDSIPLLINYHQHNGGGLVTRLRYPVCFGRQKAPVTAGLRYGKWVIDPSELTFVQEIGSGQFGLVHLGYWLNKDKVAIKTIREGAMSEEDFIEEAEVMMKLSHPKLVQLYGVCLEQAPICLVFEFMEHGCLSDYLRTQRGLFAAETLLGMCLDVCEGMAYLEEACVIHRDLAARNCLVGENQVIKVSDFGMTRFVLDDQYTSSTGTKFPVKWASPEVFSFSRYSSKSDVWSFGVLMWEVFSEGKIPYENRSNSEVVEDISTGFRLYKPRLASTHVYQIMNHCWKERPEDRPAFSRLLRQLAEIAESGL
Assay: ITK degradation HiBiT assay
Assay type: cell-based
Parameters: expressed in transfected cells; host or cells: Molt4 (ATCC CRL-1552), monoclonal clone 1C10, engineered to carry the HiBiT tag
Settings: 4 hrs; for Dmax: MOLT-4, C-terminal HiBiT-tagged Molt4 cells
Method in brief: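 C-terminal HiBiT-tagged Molt4 cells (clone 1C10) treated 4 h at 32° C with an 11-point, 5-fold compound dilution series (0.5% DMSO). HiBiT lytic detection with LgBiT then luminescence read; % ITK remaining versus concentration fit by four-parameter variable-slope model to give DC50 and Dmax.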

[1] = C-terminal HiBiT-tagged Molt4 cells

Compound | DC50 [1] | Dmax | HiBiT DMax (%) [1]
CN(C(=O)CC[C@H]1CCN(c2ccc3c(c2)C(=O)N(C2CCC(=O)NC2=O)C3=O)C1)c1ccc2cc(-c3n[nH]c4c3C[C@@H]3C(F)(F)[C@]3(C)C4)[nH]c2c1 (stereo in doubt) [Compound 67, N-(2-((4aS,5aR)-5,5-difluoro-5a-methyl-1,4,4a,5,5a,6-hexahydrocyclopropafindazol-3-yl)-1H-indol-6-yl)-3-((3R)-1-(2-(2,6-dioxopiperidin-3-yl)-1,3-dioxoisoindolin-5-yl)pyrrolidin-3-yl)-N-methylpropanamide] | 2.3 nM | 75% | –
C[C@@]12Cc3[nH]nc(-c4cc5ccc(N6CCC7(CCN(CC8CCN(c9ccc(C%10CCC(=O)NC%10=O)cn9)CC8)CC7)C6=O)cc5[nH]4)c3C[C@@H]1C2(F)F (stereo partly drawn) [Compound 19, 3-(6-(4-((2-(2-((4aS,5aR)-5,5-difluoro-5a-methyl-1,4,4a,5,5a,6-hexahydrocyclopropa[f]indazol-3-yl)-1H-indol-6-yl)-1-oxo-2,8-diazaspiro[4.5]decan-8-yl)methyl)piperidin-1-yl)pyridin-3-yl)piperidine-2,6-dione] | 0.27 nM | – | –
C[C@@]12Cc3[nH]nc(C(=O)Nc4cnn(CC5CN(C(=O)C6CCN(c7ccc(C8CCC(=O)NC8=O)cn7)CC6)C5)c4)c3C[C@@H]1C2(F)F (stereo partly drawn) [Compound 50, (4aS,5aR)-N-(1-((1-(1-(5-(2,6-dioxopiperidin-3-yl)pyridin-2-yl)piperidine-4-carbonyl)azetidin-3-yl)methyl)-1H-pyrazol-4-yl)-5,5-difluoro-5a-methyl-1,4,4a,5,5a,6-hexahydrocyclopropa[f]indazole-3-carboxamide] | 0.21 nM | – | –
CN(C(=O)CC1CCN(CC2CCN(c3ccc(C4CCC(=O)NC4=O)cn3)CC2)CC1)c1ccc2cc(-c3n[nH]c4c3C[C@@H]3C(F)(F)[C@]3(C)C4)[nH]c2c1 (stereo partly drawn) [Compound 73, N-(2-((4aS,5aR)-5,5-difluoro-5a-methyl-1,4,4a,5,5a,6-hexahydrocyclopropa[f]indazol-3-yl)-1H-indol-6-yl)-2-(1-((1-(5-(2,6-dioxopiperidin-3-yl)pyridin-2-yl)piperidin-4-yl)methyl)piperidin-4-yl)-N-methylacetamide] | 1.6 nM | – | –
Cn1c(=O)n(C2CCC(=O)NC2=O)c2ccc(N3CCC(CN4CCC5(CC4)CCN(c4ccc6cc(-c7n[nH]c8c7CCC(C)(C)C8)[nH]c6c4)C5=O)CC3)cc21 (stereo not drawn) [Compound 14, 3-(5-(4-((2-(2-(6,6-dimethyl-4,5,6,7-tetrahydro-1H-indazol-3-yl)-1H-indol-6-yl)-1-oxo-2,8-diazaspiro[4.5]decan-8-yl)methyl)piperidin-1-yl)-3-methyl-2-oxo-2,3-dihydro-1H-benzo[d]imidazol-1-yl)piperidine-2,6-dione] | 0.16 nM | 89% | –
C[C@@]12Cc3[nH]nc(C(=O)Nc4cnn(CC5CN(C(=O)C6CN(C7CCN(c8ccc9c(c8)C(=O)N(C8CCC(=O)NC8=O)C9=O)CC7)C6)C5)c4)c3C[C@@H]1C2(F)F (stereo partly drawn) [Compound 42, (4aS,5aR)-N-(1-((1-(1-(1-(2-(2,6-dioxopiperidin-3-yl)-1,3-dioxoisoindolin-5-yl)piperidin-4-yl)azetidine-3-carbonyl)azetidin-3-yl)methyl)-1H-pyrazol-4-yl)-5,5-difluoro-5a-methyl-1,4,4a,5,5a,6-hexahydrocyclopropa[f]indazole-3-carboxamide] | 2.9 nM | 93% | –
CC1(C)CCc2c(-c3cc4ccc(C(=O)N5CCN(CC6CCN(c7ccc(C8CCC(=O)NC8=O)cn7)CC6)CC5)cc4[nH]3)n[nH]c2C1 (stereo not drawn) [Compound 47, 3-(6-(4-((4-(2-(6,6-dimethyl-4,5,6,7-tetrahydro-1H-indazol-3-yl)-1H-indole-6-carbonyl)piperazin-1-yl)methyl)piperidin-1-yl)pyridin-3-yl)piperidine-2,6-dione] | 4.6 nM | – | –
C[C@@H](C(=O)N(C)c1ccc2cc(-c3n[nH]c4c3C[C@@H]3C(F)(F)[C@]3(C)C4)[nH]c2c1)N1CCN(CC2CCN(c3ccc(N4CCC(=O)NC4=O)cn3)CC2)CC1 [Compound 18, (S)—N-(2-((4aS,5aR)-5,5-difluoro-5a-methyl-1,4,4a,5,5a,6-hexahydrocyclopropa[f]indazol-3-yl)-1H-indol-6-yl)-2-(4-((1-(5-(2,4-dioxotetrahydropyrimidin-1(2H)-yl)pyridin-2-yl)piperidin-4-yl)methyl)piperazin-1-yl)-N-methylpropanamide] | 0.004 nM | – | –

Further compounds by falling DC50 [1], results first:

DC50 [1] | Dmax | HiBiT DMax (%) [1] | Compound
3.9 nM | – | – | C[C@@]12Cc3[nH]nc(C(=O)Nc4cnn(CC5CN(C(=O)C6CN(c7ccc(C8CCC(=O)NC8=O)cn7)C6)C5)c4)c3C[C@@H]1C2(F)F (stereo partly drawn) [Compound 49, (4aS,5aR)-N-(1-((1-(1-(5-(2,6-dioxopiperidin-3-yl)pyridin-2-yl)azetidine-3-carbonyl)azetidin-3-yl)methyl)-1H-pyrazol-4-yl)-5,5-difluoro-5a-methyl-1,4,4a,5,5a,6-hexahydrocyclopropa[f]indazole-3-carboxamide]
3.4 nM | 85% | – | C[C@@H](C(=O)N(C)c1ccc2cc(-c3n[nH]c4c3CCC(C)(C)C4)[nH]c2c1)N1CCN(C[C@H]2CCN(c3ccc4c(c3)C(=O)N(C3CCC(=O)NC3=O)C4=O)C2)CC1 (stereo partly drawn) [Compound 33, (2S)—N-(2-(6,6-dimethyl-4,5,6,7-tetrahydro-1H-indazol-3-yl)-1H-indol-6-yl)-2-(4-(((3R)-1-(2-(2,6-dioxopiperidin-3-yl)-1,3-dioxoisoindolin-5-yl)pyrrolidin-3-yl)methyl)piperazin-1-yl)-N-methylpropanamide]
2 nM | – | – | C[C@@H](C(=O)N(C)c1ccc2cc(-c3n[nH]c4c3CCC(C)(C)C4)[nH]c2c1)N1CCN(CC2CCN(c3ccc(N4CCC(=O)NC4=O)cn3)CC2)CC1 [Compound 11, (S)—N-(2-(6,6-dimethyl-4,5,6,7-tetrahydro-1H-indazol-3-yl)-1H-indol-6-yl)-2-(4-((1-(5-(2,4-dioxotetrahydropyrimidin-1(2H)-yl)pyridin-2-yl)piperidin-4-yl)methyl)piperazin-1-yl)-N-methylpropanamide]
0.5 nM | 83% | – | CN(C(=O)CC1CCN(CC2CCN(c3ccc(C(=O)NC4CCC(=O)NC4=O)nc3)CC2)CC1)c1ccc2cc(-c3n[nH]c4c3C[C@@H]3C(F)(F)[C@]3(C)C4)[nH]c2c1 (stereo partly drawn) [Compound 75, 5-(4-((4-(2-((2-((4aS,5aR)-5,5-difluoro-5a-methyl-1,4,4a,5,5a,6-hexahydrocyclopropa[f]indazol-3-yl)-1H-indol-6-yl)(methyl)amino)-2-oxoethyl)piperidin-1-yl)methyl)piperidin-1-yl)-N-(2,6-dioxopiperidin-3-yl)picolinamide]
0.5 nM | – | 78% | CN(C(=O)CC[C@H]1CCN(c2ccc3c(c2)C(=O)N(C2CCC(=O)NC2=O)C3=O)C1)c1ccc2cc(-c3n[nH]c4c3C[C@@H]3C(F)(F)[C@]3(C)C4)[nH]c2c1 (stereo in doubt) [Compound 68]
0.48 nM | – | – | C[C@@H](C(=O)N(C)c1ccc2cc(-c3n[nH]c4c3CCC(C)(C)C4)[nH]c2c1)N1CCN(CC2CCN(c3ccc(C4CCC(=O)NC4=O)cn3)CC2)CC1 (stereo partly drawn) [Compound 10, (2S)—N-(2-(6,6-dimethyl-4,5,6,7-tetrahydro-1H-indazol-3-yl)-1H-indol-6-yl)-2(4-((1-(5-(2,6-dioxopiperidin-3-yl)pyridin-2-yl)piperidin-4-yl)methyl)piperazin-1-yl)-N-methylpropanamide]
0.01 nM | – | – | CN(C(=O)CCC1CCN(c2ccc(C3CCC(=O)NC3=O)cn2)CC1)c1ccc2cc(-c3n[nH]c4c3C[C@@H]3C(F)(F)[C@]3(C)C4)[nH]c2c1 (stereo partly drawn) [Compound 21, N-(2-((4aS,5aR)-5,5-difluoro-5a-methyl-1,4,4a,5,5a,6-hexahydrocyclopropa[f]indazol-3-yl)-1H-indol-6-yl)-3-(1-(5-(2,6-dioxopiperidin-3-yl)pyridin-2-yl)piperidin-4-yl)-N-methylpropanamide]

Reference: US20240279202A1 (NURIX THERAPEUTICS, INC., priority 2021, published 2024)
